This is an account of results in ChEMBL document CHEMBL1201862, “PubChem BioAssay data set” (2004).

Activity calls are given as the source filed them.

Experiment [1] addresses Dual specificity protein kinase CLK1 (Homo sapiens, UniProt P49759). The experiment in a line: CLK1 kinase inhibitors, off-target check, dose response, selectivity assay for Dyrk1A inhibitor project, biochemical, cherry-picked samples (AID 588811).
The target in experiment [2] is T1, Estrogen receptor beta (Homo sapiens, UniProt Q92731).
Experiment [3] in a line: insulin promoter down-regulators in MIN6 cells, imaging, high-content screening, mouse beta cells (AID 1628). Format: functional.
Experiment [4] in a line: cytotoxicity in MIN6 insulinoma cells, dose response, cytotoxicity control, cell-based, mouse insulinoma (AID 2122).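 Further: confirmatory high-throughput counterscreen run to flag cytotoxic compounds; mouse MIN-6 beta cells carrying an insulin promoter eGFP reporter.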 The experiment is classed as functional.
Experiment [5] addresses T1, Estrogen receptor beta. In words: ERβ–SRC-3 coactivator interaction inhibitors, confirmation, orthogonal assay, biochemical, ELISA, streptavidin-HRP readout (AID 1060).
The nature of experiment [6]: growth suppression of PTEN-null colon cells, dose response, cell-based, HCT116 PTEN knockout (AID 1047).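 Further: HCT116 colon tumor cells with PTEN knocked out; cells exposed to compound for 60 hours before readout; potency for loss of cell viability measured by luminescence.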 Format: functional.
Experiment [7] in a line: growth suppression of beta-catenin-knockout colon cells, dose response, cell-based, HCT116, human colon tumor (AID 1045).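 Further: HCT116 colon tumor cells with beta catenin knocked out; cells exposed to compound for 60 hours.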 Format: functional.
A further experiment concerns the target T2, Protein skinhead-1 (Caenorhabditis elegans, UniProt P34707).
T2 sequence (P34707 whole entry): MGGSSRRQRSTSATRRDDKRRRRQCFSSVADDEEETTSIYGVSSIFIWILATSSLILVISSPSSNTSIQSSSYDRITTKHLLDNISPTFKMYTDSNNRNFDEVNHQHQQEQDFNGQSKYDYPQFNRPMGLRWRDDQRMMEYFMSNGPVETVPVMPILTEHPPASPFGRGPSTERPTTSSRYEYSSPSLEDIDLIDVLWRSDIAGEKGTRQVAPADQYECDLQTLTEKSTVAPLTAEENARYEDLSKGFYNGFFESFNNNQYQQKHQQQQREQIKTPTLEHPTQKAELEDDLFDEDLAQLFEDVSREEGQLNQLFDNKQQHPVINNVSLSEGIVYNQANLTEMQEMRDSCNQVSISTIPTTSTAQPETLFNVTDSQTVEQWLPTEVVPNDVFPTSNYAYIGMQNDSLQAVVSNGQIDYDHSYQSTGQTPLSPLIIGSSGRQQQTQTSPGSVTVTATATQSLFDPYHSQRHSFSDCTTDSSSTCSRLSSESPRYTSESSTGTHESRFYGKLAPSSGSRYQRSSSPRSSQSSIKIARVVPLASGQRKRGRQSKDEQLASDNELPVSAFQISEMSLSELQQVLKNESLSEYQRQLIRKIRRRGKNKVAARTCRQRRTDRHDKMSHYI
Format: functional.

The next experiment has as its target Prothrombin (Homo sapiens, UniProt P00734). In words: Thrombin 1536 HTS Dose Response Confirmation. [Related pubchem assays: 1046 (Thrombin 1536 HTS; hits were confirmed in this assay)]. Format: functional.
Experiment [8] is described as follows: inhibitors of intracellular T. cruzi replication, confirmation, NIH3T3 host cells, beta-gal luminescence (AID 2044).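 Further: intracellular parasites grown in NIH/3T3 mouse fibroblasts as host cells; luminescent beta-galactosidase reporter signal from transgenic T. cruzi replicating inside host cells; inhibitors lower the luminescence signal.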 The experiment is classed as functional, cell-based.
A further experiment has as its target Cytochrome P450 2C19 (Homo sapiens, UniProt P33261). In words: Cytochrome panel assay with activity outcomes. Panel member name: p450-cyp2c19 Compounds with AC50 equal or less than 10 uM are considered active. Particulars: read-out: AC50. Format: functional.
Experiment [9] can be described thus: cytotoxicity toward NIH3T3 fibroblasts, dose response, counter-screen, cell-based, ATP luminescence, mouse fibroblasts (AID 2010).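 Further: cells exposed to compound for about 90 hours before reading.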 The experiment is classed as functional.
Experiment [10] can be described thus: microbe, parasite or virus in culture. Particulars: Mycobacterium tuberculosis. Format: functional.
Another experiment addresses Cytochrome P450 3A4 (Homo sapiens, UniProt P08684).
In another experiment the target is T3, Cytochrome P450 1A2 (Homo sapiens, UniProt P05177).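 Further: PubChem cytochrome P450 panel assay, CYP1A2 panel member.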
T3 sequence (P05177 whole entry): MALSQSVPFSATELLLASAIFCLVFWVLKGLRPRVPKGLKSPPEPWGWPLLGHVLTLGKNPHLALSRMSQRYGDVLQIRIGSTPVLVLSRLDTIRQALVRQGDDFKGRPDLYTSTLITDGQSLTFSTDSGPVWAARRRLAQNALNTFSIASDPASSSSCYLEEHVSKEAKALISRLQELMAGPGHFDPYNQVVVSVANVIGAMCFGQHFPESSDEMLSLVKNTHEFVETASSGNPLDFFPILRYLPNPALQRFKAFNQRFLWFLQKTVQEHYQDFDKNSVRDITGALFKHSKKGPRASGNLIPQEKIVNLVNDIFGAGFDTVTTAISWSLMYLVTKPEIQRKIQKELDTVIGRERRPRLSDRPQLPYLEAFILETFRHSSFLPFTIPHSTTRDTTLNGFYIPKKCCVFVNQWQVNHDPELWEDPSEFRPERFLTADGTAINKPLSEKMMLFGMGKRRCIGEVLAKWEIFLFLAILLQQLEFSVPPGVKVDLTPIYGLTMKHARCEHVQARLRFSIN

The target of the next experiment is Cytochrome P450 2C9 (Homo sapiens, UniProt P11712).
Experiment [11] is described as follows: Luminescence Cell-Based Dose Retest to Confirm Inhibitors of Cancer Stem Cells. [Related pubchem assays (depositor defined):AID2717, AID2721]. The experiment is classed as functional. Particulars: Homo sapiens.
In experiment [12] the test system is Vero. The experiment in a line: cells. The experiment is classed as functional. Particulars: Chlorocebus sabaeus.
Experiment [13] relates to Vero. In words: cells. Particulars: Chlorocebus sabaeus. Format: functional, cell-based.
Experiment [14] concerns the target Glucose-6-phosphate 1-dehydrogenase (Homo sapiens, UniProt P11413). In words: human G6PD enzyme inhibitors, dose response, selectivity assay for P. falciparum G6PD inhibitor project, biochemical, fluorescence (AID 504792). Format: functional.
For experiment [15], the target named is Ras and Rab interactor 1/Tyrosine-protein kinase ABL1 (Homo sapiens, UniProt P00519+Q13671). Format: functional.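 Further: biochemical TR-FRET dose-response test measuring inhibition of binding between Rin1 and Abl proteins.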
Experiment [16] has as its target Induced myeloid leukemia cell differentiation protein Mcl-1 (Homo sapiens, UniProt Q07820). Format: functional.
For experiment [17], the target named is FAD-linked sulfhydryl oxidase ALR (Homo sapiens, UniProt P55789). In words: inhibitors of human ALR sulfhydryl oxidase, dose response, biochemical, H2O2 detection, luminescence, cherry-pick (AID 493248).
The target in experiment [18] is T4, Microphthalmia-associated transcription factor (Homo sapiens, UniProt O75030).
T4 sequence (O75030 whole entry): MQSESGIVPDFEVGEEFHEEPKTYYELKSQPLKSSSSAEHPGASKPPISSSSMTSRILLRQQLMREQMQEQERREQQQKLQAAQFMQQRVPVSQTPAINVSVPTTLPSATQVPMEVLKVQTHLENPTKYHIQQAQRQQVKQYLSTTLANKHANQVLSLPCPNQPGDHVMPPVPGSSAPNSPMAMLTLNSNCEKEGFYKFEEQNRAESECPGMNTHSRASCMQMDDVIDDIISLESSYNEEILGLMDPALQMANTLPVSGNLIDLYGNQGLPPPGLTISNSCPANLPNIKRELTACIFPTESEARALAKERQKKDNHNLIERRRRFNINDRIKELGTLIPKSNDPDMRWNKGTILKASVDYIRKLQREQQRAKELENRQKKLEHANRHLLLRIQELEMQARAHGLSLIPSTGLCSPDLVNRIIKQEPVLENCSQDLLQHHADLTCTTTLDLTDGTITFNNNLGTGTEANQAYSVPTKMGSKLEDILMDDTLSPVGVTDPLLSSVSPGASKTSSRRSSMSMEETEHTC
In words: TRPM1 promoter luciferase signal decrease, dose response, MITF inhibitor project, cell-based, SK-MEL-5, cherry-picked, set 3 (AID 493073).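 Further: SK-MEL-5 melanoma cells with luciferase driven by the MITF target TRPM1 promoter.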 Format: functional.

Another experiment in a line: cells. The experiment is classed as functional.
Experiment [19] is described as follows: THP-1 cell cytotoxicity, dose response, cytotoxicity control for non-replicating M. tuberculosis project (AID 489025). The experiment is classed as functional.
Experiment [20] has as its target T5, Histone-lysine N-methyltransferase NSD2 (Homo sapiens, UniProt O96028).
T5 sequence (O96028 whole entry): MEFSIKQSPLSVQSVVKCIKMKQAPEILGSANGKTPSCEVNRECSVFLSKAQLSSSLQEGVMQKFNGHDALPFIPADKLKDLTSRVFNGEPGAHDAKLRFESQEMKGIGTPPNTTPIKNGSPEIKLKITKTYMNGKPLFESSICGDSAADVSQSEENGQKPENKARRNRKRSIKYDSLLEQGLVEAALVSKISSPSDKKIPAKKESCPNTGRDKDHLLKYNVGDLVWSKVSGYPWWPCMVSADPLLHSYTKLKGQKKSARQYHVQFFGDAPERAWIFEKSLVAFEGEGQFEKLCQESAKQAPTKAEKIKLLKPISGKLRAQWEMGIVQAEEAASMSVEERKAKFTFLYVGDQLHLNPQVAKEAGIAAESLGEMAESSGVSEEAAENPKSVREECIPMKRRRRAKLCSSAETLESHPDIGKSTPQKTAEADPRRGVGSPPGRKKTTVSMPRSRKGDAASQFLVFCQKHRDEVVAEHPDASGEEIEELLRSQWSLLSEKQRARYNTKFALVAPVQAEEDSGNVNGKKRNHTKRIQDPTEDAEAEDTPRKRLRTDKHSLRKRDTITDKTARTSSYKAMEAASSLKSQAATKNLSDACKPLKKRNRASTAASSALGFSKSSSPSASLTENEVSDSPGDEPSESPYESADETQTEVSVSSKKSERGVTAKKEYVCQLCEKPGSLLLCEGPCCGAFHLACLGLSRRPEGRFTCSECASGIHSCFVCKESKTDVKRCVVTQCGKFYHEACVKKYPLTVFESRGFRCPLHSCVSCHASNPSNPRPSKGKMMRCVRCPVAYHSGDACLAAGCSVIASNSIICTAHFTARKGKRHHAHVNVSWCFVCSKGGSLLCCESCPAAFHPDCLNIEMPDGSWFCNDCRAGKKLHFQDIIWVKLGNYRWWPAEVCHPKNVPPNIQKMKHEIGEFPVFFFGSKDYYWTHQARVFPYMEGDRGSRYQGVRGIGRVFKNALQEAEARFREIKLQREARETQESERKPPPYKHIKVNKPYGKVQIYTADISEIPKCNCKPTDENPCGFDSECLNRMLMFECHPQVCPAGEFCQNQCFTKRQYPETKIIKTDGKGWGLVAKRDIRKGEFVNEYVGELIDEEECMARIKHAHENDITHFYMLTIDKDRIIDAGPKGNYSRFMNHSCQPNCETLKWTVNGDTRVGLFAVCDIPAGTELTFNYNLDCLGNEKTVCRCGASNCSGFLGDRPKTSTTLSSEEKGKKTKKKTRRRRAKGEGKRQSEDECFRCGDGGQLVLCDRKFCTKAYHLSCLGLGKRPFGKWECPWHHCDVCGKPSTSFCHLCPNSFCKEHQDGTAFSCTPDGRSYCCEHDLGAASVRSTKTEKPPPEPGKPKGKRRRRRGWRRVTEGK
The experiment is classed as biochemical.

Another experiment concerns A-375. The experiment in a line: A375 melanoma cell viability reduction, dose response, counter-screen for MITF modulator project, cherry-pick samples, set 2 (AID 540335). The experiment is classed as functional, cell-based. Particulars: Homo sapiens.

Chain of Dual specificity protein kinase CLK1 (P49759 whole entry): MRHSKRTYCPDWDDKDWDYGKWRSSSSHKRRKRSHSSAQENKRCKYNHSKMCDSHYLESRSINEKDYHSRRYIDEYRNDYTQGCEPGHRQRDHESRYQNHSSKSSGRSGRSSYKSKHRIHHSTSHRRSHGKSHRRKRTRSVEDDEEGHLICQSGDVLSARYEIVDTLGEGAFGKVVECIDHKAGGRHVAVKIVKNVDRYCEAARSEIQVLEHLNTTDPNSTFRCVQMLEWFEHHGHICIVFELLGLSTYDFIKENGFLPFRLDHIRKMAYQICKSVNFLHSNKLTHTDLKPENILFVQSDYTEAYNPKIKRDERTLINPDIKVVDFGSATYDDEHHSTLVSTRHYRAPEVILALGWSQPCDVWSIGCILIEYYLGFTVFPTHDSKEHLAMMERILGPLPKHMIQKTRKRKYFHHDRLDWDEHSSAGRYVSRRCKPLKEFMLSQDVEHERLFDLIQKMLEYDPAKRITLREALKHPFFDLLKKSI
Chain of Ras and Rab interactor 1/Tyrosine-protein kinase ABL1 (P00519 whole entry): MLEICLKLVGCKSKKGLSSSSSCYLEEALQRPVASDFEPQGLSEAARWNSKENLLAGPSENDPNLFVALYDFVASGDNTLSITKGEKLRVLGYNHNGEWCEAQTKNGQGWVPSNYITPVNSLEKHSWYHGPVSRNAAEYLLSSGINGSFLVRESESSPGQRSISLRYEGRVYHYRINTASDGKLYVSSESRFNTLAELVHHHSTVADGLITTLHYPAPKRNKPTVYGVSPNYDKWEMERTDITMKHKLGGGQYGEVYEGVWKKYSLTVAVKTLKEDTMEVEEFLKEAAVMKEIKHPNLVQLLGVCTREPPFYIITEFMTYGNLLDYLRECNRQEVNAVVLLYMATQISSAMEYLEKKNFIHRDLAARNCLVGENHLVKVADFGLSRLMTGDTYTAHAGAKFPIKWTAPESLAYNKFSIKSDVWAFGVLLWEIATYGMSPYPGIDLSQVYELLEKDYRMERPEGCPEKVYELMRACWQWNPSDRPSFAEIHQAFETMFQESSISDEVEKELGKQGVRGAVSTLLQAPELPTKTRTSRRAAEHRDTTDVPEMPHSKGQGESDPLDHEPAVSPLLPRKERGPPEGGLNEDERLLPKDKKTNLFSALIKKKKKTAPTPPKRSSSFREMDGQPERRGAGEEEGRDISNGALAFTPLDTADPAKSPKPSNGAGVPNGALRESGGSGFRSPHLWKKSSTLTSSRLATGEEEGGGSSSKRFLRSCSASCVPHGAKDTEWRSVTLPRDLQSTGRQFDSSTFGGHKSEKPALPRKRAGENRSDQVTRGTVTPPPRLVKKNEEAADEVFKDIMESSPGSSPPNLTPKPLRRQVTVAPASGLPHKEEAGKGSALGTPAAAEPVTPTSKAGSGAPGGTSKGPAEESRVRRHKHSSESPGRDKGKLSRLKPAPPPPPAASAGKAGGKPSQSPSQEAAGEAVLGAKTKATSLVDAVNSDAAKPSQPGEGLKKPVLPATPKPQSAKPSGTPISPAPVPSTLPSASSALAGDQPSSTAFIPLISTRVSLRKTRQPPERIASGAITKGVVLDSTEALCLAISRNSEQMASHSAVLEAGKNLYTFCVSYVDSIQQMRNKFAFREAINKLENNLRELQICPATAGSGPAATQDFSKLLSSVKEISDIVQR
Chain of Ras and Rab interactor 1/Tyrosine-protein kinase ABL1 (Q13671 whole entry): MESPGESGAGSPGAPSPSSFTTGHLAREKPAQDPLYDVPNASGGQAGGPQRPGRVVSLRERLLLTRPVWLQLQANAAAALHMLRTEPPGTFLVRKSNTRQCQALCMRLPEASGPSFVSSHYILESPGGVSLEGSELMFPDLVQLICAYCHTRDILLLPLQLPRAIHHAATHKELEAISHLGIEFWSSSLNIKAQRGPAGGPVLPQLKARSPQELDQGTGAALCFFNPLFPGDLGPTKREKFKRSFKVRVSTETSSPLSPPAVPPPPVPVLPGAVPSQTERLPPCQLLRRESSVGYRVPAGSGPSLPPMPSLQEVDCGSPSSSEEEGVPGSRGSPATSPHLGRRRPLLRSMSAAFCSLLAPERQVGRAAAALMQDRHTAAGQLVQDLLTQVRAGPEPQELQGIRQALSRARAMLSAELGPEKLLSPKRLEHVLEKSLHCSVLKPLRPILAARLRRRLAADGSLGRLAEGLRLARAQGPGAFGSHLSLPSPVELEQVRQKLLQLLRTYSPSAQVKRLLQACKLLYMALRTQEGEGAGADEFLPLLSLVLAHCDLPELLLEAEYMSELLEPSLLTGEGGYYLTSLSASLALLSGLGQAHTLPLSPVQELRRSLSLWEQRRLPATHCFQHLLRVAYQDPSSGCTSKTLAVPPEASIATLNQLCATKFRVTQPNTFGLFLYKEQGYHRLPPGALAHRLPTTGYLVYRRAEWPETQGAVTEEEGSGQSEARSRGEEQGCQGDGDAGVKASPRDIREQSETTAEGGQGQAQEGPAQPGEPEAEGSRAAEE
Chain of Glucose-6-phosphate 1-dehydrogenase (P11413 whole entry): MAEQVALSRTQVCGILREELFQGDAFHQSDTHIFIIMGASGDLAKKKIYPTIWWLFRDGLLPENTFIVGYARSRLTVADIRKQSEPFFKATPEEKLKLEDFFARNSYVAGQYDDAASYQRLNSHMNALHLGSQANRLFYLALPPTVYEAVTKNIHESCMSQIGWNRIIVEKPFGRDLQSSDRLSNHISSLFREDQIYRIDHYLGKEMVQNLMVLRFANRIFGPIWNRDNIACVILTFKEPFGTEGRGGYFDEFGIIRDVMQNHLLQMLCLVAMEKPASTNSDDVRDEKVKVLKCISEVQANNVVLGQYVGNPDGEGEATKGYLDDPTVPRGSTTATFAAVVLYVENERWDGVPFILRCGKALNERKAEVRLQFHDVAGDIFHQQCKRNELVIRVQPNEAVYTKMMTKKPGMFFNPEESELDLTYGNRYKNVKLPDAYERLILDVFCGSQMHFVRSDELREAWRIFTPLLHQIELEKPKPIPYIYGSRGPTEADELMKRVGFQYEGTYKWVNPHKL
T1 sequence (Q92731 whole entry): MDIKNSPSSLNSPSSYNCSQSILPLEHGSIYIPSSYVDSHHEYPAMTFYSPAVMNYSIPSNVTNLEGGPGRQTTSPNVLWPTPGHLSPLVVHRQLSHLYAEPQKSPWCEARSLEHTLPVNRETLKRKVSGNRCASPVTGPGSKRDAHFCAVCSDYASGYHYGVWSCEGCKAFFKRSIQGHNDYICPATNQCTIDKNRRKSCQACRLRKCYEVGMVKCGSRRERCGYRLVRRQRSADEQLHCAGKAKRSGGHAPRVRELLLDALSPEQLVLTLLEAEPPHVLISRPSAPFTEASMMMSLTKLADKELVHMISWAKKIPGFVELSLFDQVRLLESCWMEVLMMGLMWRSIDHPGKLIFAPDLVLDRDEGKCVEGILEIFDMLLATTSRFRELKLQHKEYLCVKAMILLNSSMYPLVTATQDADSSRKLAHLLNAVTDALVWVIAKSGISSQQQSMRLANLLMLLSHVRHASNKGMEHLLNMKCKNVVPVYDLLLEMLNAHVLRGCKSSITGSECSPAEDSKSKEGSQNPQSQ
Chain of Induced myeloid leukemia cell differentiation protein Mcl-1 (Q07820 whole entry): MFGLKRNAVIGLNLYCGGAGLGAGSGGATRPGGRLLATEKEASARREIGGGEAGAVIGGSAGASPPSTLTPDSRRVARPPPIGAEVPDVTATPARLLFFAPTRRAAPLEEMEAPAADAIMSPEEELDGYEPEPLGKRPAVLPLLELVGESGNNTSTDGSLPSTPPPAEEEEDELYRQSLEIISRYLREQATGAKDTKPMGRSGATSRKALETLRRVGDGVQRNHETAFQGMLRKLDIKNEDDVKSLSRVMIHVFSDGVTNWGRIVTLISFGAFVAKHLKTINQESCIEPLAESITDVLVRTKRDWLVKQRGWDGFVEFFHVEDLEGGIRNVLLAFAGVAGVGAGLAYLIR
Chain of Cytochrome P450 2C19 (P33261 whole entry): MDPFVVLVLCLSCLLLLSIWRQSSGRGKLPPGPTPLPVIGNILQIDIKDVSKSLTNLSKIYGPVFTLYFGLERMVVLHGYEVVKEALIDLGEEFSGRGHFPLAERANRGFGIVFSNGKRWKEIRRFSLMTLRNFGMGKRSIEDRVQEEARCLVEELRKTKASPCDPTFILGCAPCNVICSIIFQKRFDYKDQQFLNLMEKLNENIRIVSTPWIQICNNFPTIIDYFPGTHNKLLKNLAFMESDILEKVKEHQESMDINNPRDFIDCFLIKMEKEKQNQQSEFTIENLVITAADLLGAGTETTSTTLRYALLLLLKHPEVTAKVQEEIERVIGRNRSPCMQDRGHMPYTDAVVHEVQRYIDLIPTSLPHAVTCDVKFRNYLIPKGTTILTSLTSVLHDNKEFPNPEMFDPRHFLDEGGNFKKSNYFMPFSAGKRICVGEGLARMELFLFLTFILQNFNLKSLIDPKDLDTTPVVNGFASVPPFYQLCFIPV
Chain of FAD-linked sulfhydryl oxidase ALR (P55789 whole entry): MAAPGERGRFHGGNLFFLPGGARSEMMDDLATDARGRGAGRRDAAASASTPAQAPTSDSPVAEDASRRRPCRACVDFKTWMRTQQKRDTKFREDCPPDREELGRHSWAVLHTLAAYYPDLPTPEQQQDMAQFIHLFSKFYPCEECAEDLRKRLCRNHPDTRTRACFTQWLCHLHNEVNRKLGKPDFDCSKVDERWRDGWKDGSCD
Chain of Cytochrome P450 3A4 (P08684 whole entry): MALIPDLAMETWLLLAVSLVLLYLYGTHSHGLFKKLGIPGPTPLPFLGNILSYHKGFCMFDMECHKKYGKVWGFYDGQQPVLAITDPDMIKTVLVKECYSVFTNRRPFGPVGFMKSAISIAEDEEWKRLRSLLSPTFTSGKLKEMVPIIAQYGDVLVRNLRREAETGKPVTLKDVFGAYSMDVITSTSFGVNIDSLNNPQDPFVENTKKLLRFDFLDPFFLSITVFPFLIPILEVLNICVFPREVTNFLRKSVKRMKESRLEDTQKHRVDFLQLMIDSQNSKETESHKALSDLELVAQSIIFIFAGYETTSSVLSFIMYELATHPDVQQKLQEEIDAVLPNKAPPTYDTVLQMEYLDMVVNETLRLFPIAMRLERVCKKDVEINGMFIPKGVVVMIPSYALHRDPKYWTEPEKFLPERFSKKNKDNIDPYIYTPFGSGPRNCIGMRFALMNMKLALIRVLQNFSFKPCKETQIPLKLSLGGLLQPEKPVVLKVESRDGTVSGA

As for `Cc1occc1CNc1ncnc2ccc(-c3ccc4c(c3)OCO4)cc12`, in [1], the half-maximal activity concentration (AC50) was 0.0118 µM (active).
For `N=c1c(C(=O)NCc2ccco2)cc2c(=O)n3ccccc3nc2n1CCc1ccccc1`, the IC50 on Estrogen receptor beta [2] was > 50 µM (not active); in [3] it was 0.861 µM (active); in experiment [4], 12.4 µM (inactive); at Estrogen receptor beta [5] it was > 50 µM (not active).
In the case of `Cc1ccc(OCCCCn2cnc3ccccc32)c(C)c1`, the figures for the EC50 in [6] and in [7] were 70.8 µM (active) and 41.2 µM (active), respectively. The IC50 in experiment [3] was 2.29 µM (active); in [4], 1.76 µM (active); at Protein skinhead-1 it was > 100 µM (inactive).
`COc1ccc(-c2c[n+]3c4n2CCCCC4=C(c2ccccc2)C3)cc1`: the concentration for half-maximal inhibition (IC50) against Prothrombin was > 50 µM (not active); in [3], > 16 µM (inactive); in experiment [4], 2.76 µM (active). Besides, the figures for the EC50 in experiment [8] and in experiment [9] were 0.169 µM (active) and > 60 µM (not active), respectively. The AC50 was 3.55 µM (inconclusive) on Cytochrome P450 2C19, 3.16 µM (inconclusive) at Cytochrome P450 3A4, 28.2 µM (inconclusive) on Cytochrome P450 1A2 and 0.0316 µM (inconclusive) on Cytochrome P450 2C9. Besides, the CC50 in [10] is 28.1 µM (active).
As to `COc1cc(/C=C/C(=O)c2ccc(NS(=O)(=O)c3ccc(C)cc3)cc2)cc(OC)c1O`, in experiment [11], the concentration at half-maximal activity (AC50) was 2.27 µM (active). Further, the CC50 in the experiment on Vero [12] is 14.5 µM (active). In addition, in the experiment with Vero [13], the IC50 was > 25 µM (active).
As to `Cc1ccccc1OCC(=O)N/N=C/c1ccc(Sc2nc3ccccc3s2)o1`, in [14], the IC50 was > 80 µM (inactive).
Regarding `COC(=O)c1ccc(CSc2nnc(-c3ccccc3)n2C)o1`, in [15], the IC50 was 14.1 µM (inactive).
Consider `Clc1ccc(CNc2ccnc(-c3ccc4[nH]ncc4c3)n2)cc1Cl`, for which the concentration at half-maximal activity (AC50) in experiment [1] is 0.00784 µM (active).
On to `Cc1ccc(/C=C2\C(=O)NC(=S)N(c3ccccc3F)C2=O)s1`, for which the IC50 in [14] was > 80 µM (inactive); in experiment [16], 4.91 µM (active).
With `CCc1ccc(N2C(=O)NC(=O)/C(=C\C=C\c3ccco3)C2=O)cc1`, the AC50 was 4.24 µM (active) in experiment [17]; 7.53 µM (active) in experiment [18]; 1.96 µM (active) in [11]; > 20 µM (inactive) in [20]; 21.6 µM (active) with A-375. For the same compound, in “cells”, the half-maximal inhibitory concentration (IC50) was 19.6 µM (active). Moreover, the CC50 in [19] was > 40 µM (active).
For the compound `CCCOc1ccc(/C=C/C(=O)N2CCN(C(=O)c3ccco3)CC2)cc1OC`, the IC50 in experiment [15] is > 73.5 µM (inactive).
Regarding `CCOC(=O)c1ccc(-c2ccc3ncnc(N(C)Cc4sccc4C)c3c2)o1`, the concentration at half-maximal activity (AC50) in [1] was 1.47 µM (active).
